Measured values reported in patent US12551482B2, “Aurora kinase inhibitors” (The Regents of the University of California, priority 2013, dated 2026).
pEC50: −log10 of the molar value. Where two headings read alike, the source gives them in different places.

Legend:
JHH-6 = test: Cancer cell line profiling, Genomics of Drug Sensitivity Project; conditions: read-out: CD532 EC50 (uM)
NB12 = test: as above; conditions: read-out: CD532 EC50 (uM)
MYCN [1] = test: MYCN protein by immunoblot in SHEP cells expressing MYCN; type: cell-based
Procedure: Neuroblastoma tumor cell lines were obtained from the University of California San Francisco Cell Culture Facility (Kelly, SK-N-BE2, and SH-EP). SMS-KCN, SHEP MYCN^wt and MYCN^T58A/S62A cells were obtained. All cells were grown in RPMI with 10% FBS. Neuroblastoma cells were harvested and lysed with Cell Signaling Lysis buffer+1% SDS, sonicated and supernatants boiled in LDS sample buffer (Invitrogen). Western blots were performed as described previously (Chanthery et al., 2012), with primary antibodies to MYCN (ab24193, Abcam), Histone H3, P-Histone H3 (S10), Aurora A (Cell signaling), and GAPDH (Millipore). Western blot quantitation performed with ImageJ software.
MYCN is believed to be sequentially phosphorylated at S62/T58 before it is targeted for degradation by ubiquitination, and only phosphorylated, ubiquitinated MYCN is protected from degradation by Aurora A (Gustafson and Weiss, 2010; Otto et al., 2009).

RL95-2 = test: Cancer cell line profiling, Genomics of Drug Sensitivity Project; conditions: Homo sapiens, RL95-2, read-out: CD532 EC50 (uM)
CAL-62 = test: as above; conditions: Homo sapiens, CAL-62, read-out: CD532 EC50 (uM)
SNU-61 = test: as above; conditions: read-out: CD532 EC50 (uM)
LB771-HNC = test: as above; conditions: read-out: CD532 EC50 (uM)
LB831-BLC = test: as above; conditions: read-out: CD532 EC50 (uM)
SCH = test: as above; conditions: read-out: CD532 EC50 (uM)
TT = test: as above; type: cell-based; conditions: Homo sapiens, read-out: CD532 EC50 (uM), Thyroid
AGS = test: as above; conditions: Homo sapiens, read-out: CD532 EC50 (uM)
AsPC-1 = test: as above; conditions: Homo sapiens, ASPC1, read-out: CD532 EC50 (uM)
HO-1-u-1 = test: as above; conditions: read-out: CD532 EC50 (uM)
HSC-3 = test: as above; conditions: Homo sapiens, HSC-3, read-out: CD532 EC50 (uM)
IGR-37 = test: as above; conditions: Homo sapiens, IGR-37, read-out: CD532 EC50 (uM)
OSC-19 = test: as above; conditions: OSC19, read-out: CD532 EC50 (uM)
SNU-423 = test: as above; conditions: Homo sapiens, SNU-423, read-out: CD532 EC50 (uM)
EFO-21 = test: as above; conditions: Homo sapiens, EFO-21, read-out: CD532 EC50 (uM)
Detroit 562 = test: as above; conditions: Homo sapiens, Detroit 562, read-out: CD532 EC50 (uM)
UACC-257 = test: as above; conditions: Homo sapiens, UACC-257, read-out: CD532 EC50 (uM)
KP-N-YS = test: as above; conditions: read-out: CD532 EC50 (uM)
WM35 = test: as above; conditions: WM35, read-out: CD532 EC50 (uM)
LS-123 = test: as above; conditions: Homo sapiens, LS-123, read-out: CD532 EC50 (uM)
MYCN [2] = test: MYCN-amplified neuroblastoma xenografts, MYCN protein in tumors; type: in vivo; conditions: mice treated daily for 2 days with 60 mg/kg
Procedure: Mice were injected intraperitoneally as described. For determining tumor volume, for example in medulloblastoma model mice, mice were euthanized once maximum tumor length exceeded 2.0 cm, per IACUC protocol (IACUC, Institutional Animal Care and Use Committee).

c-MYC = c-MYC protein by immunoblot in c-MYC expressing cancer cell lines; type: cell-based
OSC-20 = test: Cancer cell line profiling, Genomics of Drug Sensitivity Project; conditions: read-out: CD532 EC50 (uM)
HMVII = test: as above; conditions: read-out: CD532 EC50 (uM)
SK-MEL-5 = test: as above

## O=C(Nc1ccc(Nc2nccc(Nc3cc(C4CCCC4)[nH]n3)n2)cc1)Nc1cccc(C(F)(F)F)c1 [CD532, 1-(4-((4-((5-cyclopentyl-1H-pyrazol-3-yl)amino)pyrimidin-2-yl)amino)phenyl)-3-(3-(trifluoromethyl)phenyl)urea]
JHH-6
  EC50: 1.24 µM
NB12
  EC50: 0.293 µM
MYCN [1]; SHEP cells expressing MYCNWT, 24 hrs, increasing concentrations (FIG. 12C)
  wild-type MYCN protein: dose-dependent decrease in wild-type MYCN protein
MYCN [1]; SHEP cells expressing non-phosphorylatable MYCNT58A/S62A, 24 hrs (FIG. 12C)
  MYCNT58A/S62A protein: partially protected from degradation
RL95-2
  EC50: 0.335 µM
CAL-62
  EC50: 0.589 µM
SNU-61
  EC50: 1.02 µM
LB771-HNC
  EC50: 0.916 µM
LB831-BLC
  EC50: 1.29 µM
SCH
  EC50: 1.24 µM
TT
  EC50: 0.972 µM
AGS
  EC50: 0.346 µM
AsPC-1
  EC50: 5.41 µM
HO-1-u-1
  EC50: 9.81 µM
HSC-3
  EC50: 2.33 µM
IGR-37
  EC50: 0.547 µM
OSC-19
  EC50: 1.18 µM
SNU-423
  EC50: 0.753 µM
EFO-21
  EC50: 1.87 µM
Detroit 562
  EC50: 1.25 µM
UACC-257
  EC50: 0.607 µM
KP-N-YS
  EC50: 0.27 µM
WM35
  EC50: 0.367 µM
LS-123
  EC50: 0.861 µM
MYCN [2]
  MYCN protein in tumors: decreased levels of MYCN protein
c-MYC; RKO colon cancer cell line
  c-MYC protein: effects loss of c-MYC protein
c-MYC; SUM142 breast cancer cell line
  c-MYC protein: effects loss of c-MYC protein
c-MYC; SUM149 (ER−/PR−) breast cancer cell line
  c-Myc protein: loss of c-Myc
c-MYC; c-MYC-translocated ML-60 leukemia cell line
  c-MYC protein: effects loss of c-MYC protein
OSC-20
  EC50: 1.23 µM
HMVII
  EC50: 0.746 µM
SK-MEL-5; Homo sapiens, SK-MEL-5, read-out: CD532 EC50 (uM), SK-MEL-5 cell line, Skin
  EC50: 0.525 µM
SK-MEL-5; read-out: CD532 EC50, SK-MEL-5 cell line, Skin
  pEC50: 6.44
